Broadly, the IC50 is the concentration needed to halve the response being measured.

The experiment addresses T1, RORγt (Homo sapiens, UniProt P51449).
T1 construct: gene RORC; LBD, amino acids 264–518, His6-tagged
T1 sequence (P51449 264-518): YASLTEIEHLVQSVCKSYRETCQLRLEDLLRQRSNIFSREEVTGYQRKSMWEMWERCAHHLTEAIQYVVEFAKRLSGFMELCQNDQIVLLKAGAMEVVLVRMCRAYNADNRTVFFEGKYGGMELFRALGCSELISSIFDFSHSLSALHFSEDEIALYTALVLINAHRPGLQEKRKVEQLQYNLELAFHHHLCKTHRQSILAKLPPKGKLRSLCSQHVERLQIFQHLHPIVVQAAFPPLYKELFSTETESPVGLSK
Description: TR-FRET displacement of RIP140 co-activator peptide from purified RORγt-LBD; supported by DSLS thermal shift (ΔTagg […] °C). It counts as binding. For orientation: TR-FRET usually uses a lanthanide donor and a delayed reading to cut background.

`Cc1ncc(C(=O)Nc2cn3ccnc3c(CN3CCN(C(=O)C4CCCC4)[C@@H](C)C3)c2C)cn1` [compound 1, (S)-N-(8-((4-(cyclopentanecarbonyl)-3-methylpiperazin-1-yl)methyl)-7-methylimidazo[1,2-a]pyridin-6-yl)-2-methylpyrimidine-5-carboxamide]: the 50% inhibitory concentration (IC50) worked out at 19 nM.

Source of the values: paper PMC5695821, “Pharmacological inhibition of RORγt suppresses the Th17 pathway and alleviates arthritis in vivo” (PLoS ONE, 2017).
